In one data set the target is NaV1.6 (Homo sapiens (Human), UniProt Q9UQD0). Description: Sodium Influx Assay (Flux), NaV1.6.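 Note: Tetracycline-induced cells, compounds applied for one hour at room temperature with modulators holding channels open, IC50 from percent inhibition of sodium influx.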 The following applies: Trex HEK293 cells, ANG2 dye, inactivated state. Type of data set: cell-based.
In a further data set the target is NaV1.1 (Homo sapiens (Human), UniProt P35498). Description: Sodium Influx Assay (Flux), NaV1.1.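 Note: channels co-expressed with human β1 subunit and held open by modulators, cells exposed to compounds for one hour at room temperature, IC50 from percent inhibition of influx.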 Type of data set: cell-based. The following applies: Trex HEK293 cells, ANG2 dye, inactivated state.
Another data set concerns the target NaV1.5 (Homo sapiens (Human), UniProt Q14524). Description: Sodium Influx Assay (Flux), NaV1.5. The note with it: read-out: Flux NaV1.5 IC50; Trex HEK293 cells, ANG2 dye, inactivated state.

Each structure is given as a SMILES string. Where a name gives a salt, the structure may show the parent alone.

This is an account of results in patent publication US11174268B2, “Benzenesulfonamide compouds and their use as therapeutic agents” (Xenon Pharmaceuticals Inc., priority 2016, dated 2021).

Sequence of NaV1.5 (Q14524 other isoform, or with tags, fused parts or gaps): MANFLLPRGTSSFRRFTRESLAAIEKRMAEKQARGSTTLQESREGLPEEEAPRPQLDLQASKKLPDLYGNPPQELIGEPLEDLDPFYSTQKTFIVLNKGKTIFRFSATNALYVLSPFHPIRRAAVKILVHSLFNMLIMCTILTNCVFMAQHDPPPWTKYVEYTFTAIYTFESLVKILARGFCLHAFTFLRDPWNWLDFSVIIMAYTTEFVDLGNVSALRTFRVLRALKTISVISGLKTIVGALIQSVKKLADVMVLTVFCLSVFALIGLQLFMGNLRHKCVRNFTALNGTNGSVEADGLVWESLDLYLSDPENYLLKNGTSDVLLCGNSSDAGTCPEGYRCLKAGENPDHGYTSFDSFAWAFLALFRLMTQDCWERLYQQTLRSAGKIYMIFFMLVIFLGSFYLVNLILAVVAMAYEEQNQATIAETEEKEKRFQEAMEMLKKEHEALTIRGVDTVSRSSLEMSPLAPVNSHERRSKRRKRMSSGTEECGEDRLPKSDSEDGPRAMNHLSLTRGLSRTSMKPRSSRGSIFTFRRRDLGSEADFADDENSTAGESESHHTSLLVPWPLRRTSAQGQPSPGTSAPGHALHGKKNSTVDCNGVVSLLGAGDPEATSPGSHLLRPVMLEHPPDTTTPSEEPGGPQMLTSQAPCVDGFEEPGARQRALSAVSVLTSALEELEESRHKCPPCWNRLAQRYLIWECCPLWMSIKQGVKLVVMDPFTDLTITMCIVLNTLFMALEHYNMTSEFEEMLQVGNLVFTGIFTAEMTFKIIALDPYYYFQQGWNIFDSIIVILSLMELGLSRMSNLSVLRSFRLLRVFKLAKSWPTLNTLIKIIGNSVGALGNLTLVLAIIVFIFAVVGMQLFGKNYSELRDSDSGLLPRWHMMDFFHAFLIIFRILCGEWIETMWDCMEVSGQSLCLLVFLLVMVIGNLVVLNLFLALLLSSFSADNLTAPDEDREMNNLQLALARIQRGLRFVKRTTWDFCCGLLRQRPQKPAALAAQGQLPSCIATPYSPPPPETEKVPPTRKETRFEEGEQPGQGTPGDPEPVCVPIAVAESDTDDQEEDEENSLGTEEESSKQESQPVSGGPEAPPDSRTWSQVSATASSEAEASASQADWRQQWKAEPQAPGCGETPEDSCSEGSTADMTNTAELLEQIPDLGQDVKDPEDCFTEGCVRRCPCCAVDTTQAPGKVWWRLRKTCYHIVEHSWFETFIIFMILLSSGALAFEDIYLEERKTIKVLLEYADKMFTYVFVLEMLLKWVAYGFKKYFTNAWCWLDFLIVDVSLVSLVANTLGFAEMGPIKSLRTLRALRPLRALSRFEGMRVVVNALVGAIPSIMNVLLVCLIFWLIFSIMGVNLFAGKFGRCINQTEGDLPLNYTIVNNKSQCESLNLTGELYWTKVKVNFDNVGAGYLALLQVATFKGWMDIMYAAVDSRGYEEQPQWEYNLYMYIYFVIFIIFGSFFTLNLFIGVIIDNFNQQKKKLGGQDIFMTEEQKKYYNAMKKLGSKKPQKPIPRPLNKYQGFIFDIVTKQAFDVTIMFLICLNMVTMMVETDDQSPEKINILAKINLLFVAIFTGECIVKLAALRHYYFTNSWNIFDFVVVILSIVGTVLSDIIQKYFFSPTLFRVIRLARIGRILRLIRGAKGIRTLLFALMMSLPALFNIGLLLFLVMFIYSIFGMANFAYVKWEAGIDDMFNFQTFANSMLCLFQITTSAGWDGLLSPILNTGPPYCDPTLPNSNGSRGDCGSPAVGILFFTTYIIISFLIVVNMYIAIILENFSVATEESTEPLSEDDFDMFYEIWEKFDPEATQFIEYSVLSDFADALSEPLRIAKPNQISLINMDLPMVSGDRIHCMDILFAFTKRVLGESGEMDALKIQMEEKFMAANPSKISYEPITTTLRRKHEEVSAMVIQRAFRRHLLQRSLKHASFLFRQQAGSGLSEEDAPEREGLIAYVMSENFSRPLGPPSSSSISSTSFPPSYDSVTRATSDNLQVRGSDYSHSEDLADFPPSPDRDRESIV

Broadly, the IC50 is the point on the concentration scale where inhibition reaches its midpoint. For `C[C@H](Nc1cc(F)c(S(=O)(=O)Nc2cscn2)cc1Cl)c1cc(OC(F)F)ccc1F` [Example 281, (S)-5-chloro-4-((1-(5-(difluoromethoxy)-2-fluorophenyl)ethyl)amino)-2-fluoro-N-(thiazol-4-yl)benzenesulfonamide], the IC50 was 1.07 µM against NaV1.6, 7.06 µM against NaV1.1 and 11 µM at NaV1.5.

Regarding `O=S(=O)(Nc1cscn1)c1cc(Cl)c(NCc2c(F)ccc(F)c2CN2CC3(CCOCC3)C2)cc1F` [Example 282, 4-((2-((7-oxa-2-azaspiro[3.5]nonan-2-yl)methyl)-3,6-difluorobenzyl)amino)-5-chloro-2-fluoro-N-(thiazol-4-yl)benzenesulfonamide 2,2,2-trifluoroacetate], the results for the IC50 on NaV1.6, at NaV1.1 and at NaV1.5 were 0.409 µM, 9.78 µM and 6.58 µM, respectively.

In the case of `CN(Cc1c(F)ccc(F)c1CN1CCC1)c1cc(F)c(S(=O)(=O)Nc2cscn2)c(F)c1` [Example 284, 4-((2-(azetidin-1-ylmethyl)-3,6-difluorobenzyl)(methyl)amino)-2,6-difluoro-N-(thiazol-4-yl)benzenesulfonamide 2,2,2-trifluoroacetate], the IC50 against NaV1.6 came to 1.37 µM; at NaV1.1, 30 µM; on NaV1.5, 30 µM.

With `Cc1cccc(CN2CCC2)c1CNc1cc(F)c(S(=O)(=O)Nc2cscn2)c(F)c1` [Example 285, 4-((2-(Azetidin-1-ylmethyl)-6-methylbenzyl)amino)-2,6-difluoro-N-(thiazol-4-yl)benzenesulfonamide formate], the half-inhibitory concentration (IC50) at NaV1.6 came to 0.625 µM; against NaV1.1, 5.89 µM; on NaV1.5 it was 26.6 µM.

In the case of `C[C@H](Nc1cc(F)c(S(=O)(=O)Nc2cscn2)cc1Cl)c1cc(F)c(F)cc1F` [Example 286, (S)-5-chloro-2-fluoro-N-(thiazol-4-yl)-4-((1-(2,4,5-trifluorophenyl)ethyl)amino)benzenesulfonamide], the IC50 against NaV1.6 was determined as 3.38 µM; against NaV1.1, 6.84 µM; at NaV1.5, 8.78 µM.

On to `O=S(=O)(Nc1cscn1)c1c(F)cc(N[C@@H]2C[C@H](N3CCC3)c3ccccc32)cc1F` [Example 289, 4-(((1R,3S)-3-(azetidin-1-yl)-2,3-dihydro-1H-inden-1-yl)amino)-2,6-difluoro-N-(thiazol-4-yl)benzenesulfonamide], for which the values for the IC50 at NaV1.6, on NaV1.1 and at NaV1.5 were 0.556 µM, 4.27 µM and 30 µM, respectively.

Take `O=S(=O)(Nc1cscn1)c1cc(Cl)c(NCc2c(Cl)cccc2CN2CC3(CNC3)C2)cc1F` [Example 291, 4-((2-((2,6-diazaspiro[3.3]heptan-2-yl)methyl)-6-chlorobenzyl)amino)-5-chloro-2-fluoro-N-(thiazol-4-yl)benzenesulfonamide 2,2,2-trifluoroacetate]: the IC50 against NaV1.6 turned out to be 0.368 µM; at NaV1.1 it was 14 µM; at NaV1.5 it was 30 µM.

Regarding `CN1CC2(C1)CN(Cc1cccc(Cl)c1CNc1cc(F)c(S(=O)(=O)Nc3cscn3)cc1Cl)C2` [Example 292, 5-chloro-4-((2-chloro-6-((6-methyl-2,6-diazaspiro[3.3]heptan-2-yl)methyl)benzyl)amino)-2-fluoro-N-(thiazol-4-yl)benzenesulfonamide 2,2,2-trifluoroacetate], the IC50 worked out at 0.624 µM against NaV1.6, 2.72 µM on NaV1.1 and 8.4 µM on NaV1.5.

Regarding `O=S(=O)(Nc1ccon1)c1ccc(NCc2c(F)cccc2CN2CCCC2)c(F)c1F` [Example 294, 2,3-difluoro-4-((2-fluoro-6-(pyrrolidin-1-ylmethyl)benzyl)amino)-N-(isoxazol-3-yl)benzenesulfonamide 2,2,2-trifluoroacetate], the IC50 against NaV1.6 is 0.688 µM; at NaV1.1, 30 µM; at NaV1.5, 30 µM.

Consider `O=S(=O)(Nc1ccc(F)cn1)c1c(F)cc(NCc2c(F)cccc2CN2CCC2)cc1F` [Example 296, 4-((2-(azetidin-1-ylmethyl)-6-fluorobenzyl)amino)-2,6-difluoro-N-(5-fluoropyridin-2-yl)benzenesulfonamide formate], for which the IC50 worked out at 1.31 µM against NaV1.6, 16.9 µM on NaV1.1 and 30 µM at NaV1.5.

Take `O=S(=O)(Nc1cscn1)c1cc(Cl)c(NCc2c(F)ccc3cc[nH]c23)cc1F` [Example 298, 5-chloro-2-fluoro-4-(((6-fluoro-1H-indol-7-yl)methyl)amino)-N-(thiazol-4-yl)benzenesulfonamide]: the half-inhibitory concentration (IC50) against NaV1.6 is 0.785 µM; on NaV1.1 it was 7.19 µM; on NaV1.5, 11.3 µM.

Regarding `C[C@@H](O)c1cccc(F)c1CNc1cc(F)c(S(=O)(=O)Nc2cscn2)c(F)c1` [Example 299, (R)-2,6-difluoro-4-((2-fluoro-6-(1-hydroxyethyl)benzyl)amino)-N-(thiazol-4-yl)benzenesulfonamide], the IC50 on NaV1.6 is 3.61 µM; against NaV1.1, 0.684 µM; on NaV1.5 it was 21.6 µM.

Turning to `O=S(=O)(Nc1ccon1)c1cc(Cl)c(NCc2c(F)cccc2CN2CCC2)cc1F` [Example 301, 4-((2-(azetidin-1-ylmethyl)-6-fluorobenzyl)amino)-5-chloro-2-fluoro-N-(isoxazol-3-yl)benzenesulfonamide formate], the figures for the half-maximal inhibitory concentration (IC50) against NaV1.6, against NaV1.1 and on NaV1.5 were 0.493 µM, 30 µM and 30 µM, respectively.

With `O=S(=O)(Nc1cscn1)c1c(F)cc(NCc2c(F)cccc2CN2CCC2)cc1F` [Example 302, 4-((2-(azetidin-1-ylmethyl)-6-fluorobenzyl)amino)-2,6-difluoro-N-(thiazol-4-yl)benzenesulfonamide 2,2,2-trifluoroacetate], the IC50 at NaV1.6 was 0.049 µM; on NaV1.1, 9.67 µM; on NaV1.5, 23.9 µM.

On to `O=S(=O)(Nc1cscn1)c1c(F)cc(NCc2c(F)cccc2CN2CCC2)c(Cl)c1F` [Example 303, 4-((2-(azetidin-1-ylmethyl)-6-fluorobenzyl)amino)-3-chloro-2,6-difluoro-N-(thiazol-4-yl)benzenesulfonamide 2,2,2-trifluoroacetate], for which the IC50 against NaV1.6 was determined as 0.007 µM; against NaV1.1, 5.73 µM; on NaV1.5, 24.5 µM.

Consider `Cc1c(NCc2ccccc2CN2CCC2(C)C)cc(F)c(S(=O)(=O)Nc2cscn2)c1F` [Example 305, 4-((2-((2,2-dimethylazetidin-1-yl)methyl)benzyl)amino)-2,6-difluoro-3-methyl-N-(thiazol-4-yl)benzenesulfonamide 2,2,2-trifluoroacetate], for which the figures for the half-maximal inhibitory concentration (IC50) on NaV1.6, at NaV1.1 and on NaV1.5 were 0.057 µM, 14.2 µM and 30 µM, respectively.

Regarding `Cc1c(NCc2c(F)cccc2CN2CCC2(C)C)ccc(S(=O)(=O)Nc2cscn2)c1F` [Example 306, 4-((2-((2,2-dimethylazetidin-1-yl)methyl)-6-fluorobenzyl)amino)-2-fluoro-3-methyl-N-(thiazol-4-yl)benzenesulfonamide], the IC50 was found to be 0.241 µM against NaV1.6, 18.1 µM against NaV1.1 and 8.1 µM at NaV1.5.

Take `O=S(=O)(Nc1cscn1)c1cc(F)c(NCc2c(F)cccc2CN2CCC2)cc1F` [Example 308, 4-((2-(azetidin-1-ylmethyl)-6-fluorobenzyl)amino)-2,5-difluoro-N-(thiazol-4-yl)benzenesulfonamide]: the results for the IC50 against NaV1.6, against NaV1.1 and on NaV1.5 were 0.605 µM, 26 µM and 26.4 µM, respectively.

In the case of `O=S(=O)(Nc1cscn1)c1c(F)cc(NCc2c(Cl)ccc(F)c2CN2CCC2)cc1F` [Example 309, 4-((2-(azetidin-1-ylmethyl)-6-chloro-3-fluorobenzyl)amino)-2,6-difluoro-N-(thiazol-4-yl)benzenesulfonamide 2,2,2-trifluoroacetate], the results for the IC50 against NaV1.6, against NaV1.1 and on NaV1.5 were 0.085 µM, 6.34 µM and 27.6 µM, respectively.

`O=S(=O)(Nc1ccncn1)c1c(F)cc(NCc2ccccc2CN2CCC2)cc1F` [Example 311, 4-((2-(azetidin-1-ylmethyl)benzyl)amino)-2,6-difluoro-N-(pyrimidin-4-yl)benzenesulfonamide formate]: the IC50 was found to be 0.219 µM at NaV1.6, 26.4 µM at NaV1.1 and 30 µM on NaV1.5.

Consider `Cc1cc(NCc2ccccc2CN2CCC2)c(F)c(F)c1S(=O)(=O)Nc1cscn1` [Example 312, 4-((2-(azetidin-1-ylmethyl)benzyl)amino)-2,3-difluoro-6-methyl-N-(thiazol-4-yl)benzenesulfonamide 2,2,2-trifluoroacetate], for which the IC50 stood at 0.135 µM against NaV1.6, 7.26 µM against NaV1.1 and 9.59 µM at NaV1.5.

For `Cc1c(NCc2c(Cl)ccc(F)c2CN2CCC2)cc(F)c(S(=O)(=O)Nc2cscn2)c1F` [Example 313, 4-((2-(azetidin-1-ylmethyl)-6-chloro-3-fluorobenzyl)amino)-2,6-difluoro-3-methyl-N-(thiazol-4-yl)benzenesulfonamide 2,2,2-trifluoroacetate], the values for the IC50 against NaV1.6, on NaV1.1 and on NaV1.5 were 0.014 µM, 3.75 µM and 14.3 µM, respectively.

For the compound `Cc1cc(NCc2c(F)cccc2CN2CC(C)(C)C2)c(F)c(F)c1S(=O)(=O)Nc1cscn1` [Example 314, 4-((2-((3,3-dimethylazetidin-1-yl)methyl)-6-fluorobenzyl)amino)-2,3-difluoro-6-methyl-N-(thiazol-4-yl)benzenesulfonamide 2,2,2-trifluoroacetate], the IC50 on NaV1.6 amounted to 0.032 µM; at NaV1.1, 30 µM; at NaV1.5, 30 µM.

`Cc1c(NCc2c(F)cccc2CN2CCC2)ccc(S(=O)(=O)Nc2ccon2)c1F` [Example 315, 4-((2-(azetidin-1-ylmethyl)-6-fluorobenzyl)amino)-2-fluoro-N-(isoxazol-3-yl)-3-methylbenzenesulfonamide 2,2,2-trifluoroacetate]: the IC50 on NaV1.6 amounted to 0.27 µM; on NaV1.1 it was 30 µM; on NaV1.5, 30 µM.
